Test results as given in US8017606B2, “Quinoline derivatives as antibacterial agents” (Janssen Pharmaceutica NV, priority 2005, dated 2011).

Key:
Assay in all cases: Microtitre plate assay, IC90 determination
Assay type in all cases: cell-based
[1] = test system: Bacillus subtilis (ATCC43639); details: 90% inhibitory concentration for bacterial growth, 37° C., resazurin fluorescence, read-out: IC90 (μg/ml) BSU 43639
Description: (§1) The bacteria used in this study were grown overnight in flasks containing 100 ml Mueller-Hinton Broth (Becton Dickinson—cat. no. 275730) in sterile de-ionized water, with shaking, at 37° C. Stocks (0.5 ml/tube) were stored at −70° C. until use. Bacteria titrations were performed in microtiter plates and colony forming units (CFUs) were determined. In general, an inoculum level of approximately 100 CFUs was used for susceptibility testing.
(§2) Anti Bacterial Susceptibility Testing: IC90 Determination
(§3) Flat-bottom, sterile 96-well plastic microtiter plates were filled with 180 μl of sterile deionized water, supplemented with 0.25% BSA. Subsequently, stock solutions (7.8×final test concentration) of compounds were added in 45 μl volumes in column 2 Serial five-fold dilutions (45 μl in 180 μl) were made directly in the microtiter plates from column 2 to reach column 11. Untreated control samples with (column 1) and without (column 12) inoculum were included in each microtiter plate. Depending on the bacteria type, approximately 10 to 60 CFU per well of bacteria inoculum (100 TCID50), in a volume of 100 μl in 2.8× Mueller-Hinton broth medium, was added to the rows A to H, except column 12. The same volume of broth medium without inoculum was added to column 12 in row A to H. The cultures were incubated at 37° C. for 24 hours under a normal atmosphere (incubator with open air valve and continuous ventilation). At the end of incubation, one day after inoculation, the bacterial growth was quantitated fluorometrically. Therefore resazurin (0.6 mg/ml) was added in a volume of 20 μl to all wells […], and the plates were re-incubated overnight. A change in colour from blue to pink indicated the growth of bacteria.
(§4) The fluorescence was read in a computer-controlled fluorometer (Cytofluor Biosearch) at an excitation wavelength of 530 nm and an emission wavelength of 590 nm. The % growth inhibition achieved by the compounds was calculated according to standard methods. The IC90 (expressed in μg/ml) was defined as the 90% inhibitory concentration for bacterial growth.

[2] = test system: Enterococcus faecalis (ATCC29212); details: 90% inhibitory concentration for bacterial growth, 37° C., resazurin fluorescence, read-out: IC90 (μg/ml) EFA 29212
Description: as §1, §2, §3, §4

[3] = test system: Listeria monocytogenes (ATCC49594); details: 90% inhibitory concentration for bacterial growth, 37° C., resazurin fluorescence, read-out: IC90 (μg/ml) LMO 49594
Description: as §1, §2, §3, §4

[4] = test system: Pseudomonas aeruginosa (ATCC27853); details: 90% inhibitory concentration for bacterial growth, 37° C., resazurin fluorescence, read-out: IC90 (μg/ml) PAE 27853
Description: as §1, §2, §3, §4

[5] = test system: Staphylococcus aureus (ATCC25923); details: 90% inhibitory concentration for bacterial growth, 37° C., resazurin fluorescence, read-out: IC90 (μg/ml) STA 25923
Description: as §1, §2, §3, §4

[6] = test system: Staphylococcus aureus (ATCC29213); details: 90% inhibitory concentration for bacterial growth, 37° C., resazurin fluorescence, read-out: IC90 (μg/ml) STA 29213
Description: as §1, §2, §3, §4

[7] = test system: Streptococcus pneumoniae (ATCC6305); details: 90% inhibitory concentration for bacterial growth, 37° C., resazurin fluorescence, read-out: IC90 (μg/ml) SPN 6305
Description: as §1, §2, §3, §4

[8] = test system: Streptococcus pyogens (ATCC8668); details: 90% inhibitory concentration for bacterial growth, 37° C., resazurin fluorescence, read-out: IC90 (μg/ml) SPY 8668
Description: as §1, §2, §3, §4

[9] = test system: methicilline resistant Staphylococcus aureus (MRSA) (a clinical isolate from the University of Antwerp); details: 90% inhibitory concentration for bacterial growth, 37° C., resazurin fluorescence, read-out: IC90 (μg/ml) STA RMETHIC
Description: as §1, §2, §3, §4

[10] = test system: Streptococcus mutans (ATCC33402); details: 90% inhibitory concentration for bacterial growth, 37° C., resazurin fluorescence, read-out: IC90 (μg/ml) SMU 33402
Description: as §1, §2, §3, §4

[11] = test system: Enterococcus faecalis (ATCC14506); details: 90% inhibitory concentration for bacterial growth, 37° C., resazurin fluorescence, read-out: IC90 (μg/ml) EFA 14506
Description: as §1, §2, §3, §4

Measured: IC90

CN(C)CCC(O)(c1cc(F)cc(F)c1)c1ccc2nc(-c3cccnc3)cc(-c3ccccc3)c2c1 (centres unmarked) [Compound 42]
9.9 µg/mL: [5]
49.6 µg/mL: [9]
39.4 µg/mL: [3] | [6]
not listed: [10] | [11]
12.5 µg/mL: all other assays above

CN(C)CCC(O)(c1ccccc1)c1ccc2nc(N(C)C)cc(-c3ccccc3)c2c1 (centres unmarked) [Compound 47]
not listed: [10] | [11]
10.7 µg/mL: all other assays above

CN(C)CCC(O)(c1ccccc1)c1cc(-c2cccnc2)cc2cc(-c3ccccc3)c(-c3cccnc3)nc12 (centres unmarked) [Compound 65]
not listed: [11]
13.5 µg/mL: all other assays above

CN(C)CCC(O)(c1cc(F)cc(F)c1)c1cccc2nc(N(C)C)c(-c3ccccc3)cc12 (centres unmarked) [Compound 45]
10.3 µg/mL: [11] | [5]
11.6 µg/mL: [2] | [3] | [4] | [7]
46.2 µg/mL: [9]
9.2 µg/mL: all other assays above

COc1nc2cccc(C(O)(CCN(C)C)c3cc(F)cc(F)c3)c2cc1-c1ccccc1 (centres unmarked) [Compound 1]
9 µg/mL: [10] | [8]
11.3 µg/mL: all other assays above

CC(=O)c1ccc(N2CCN(c3nc4c(C(O)(CCN(C)C)c5ccccc5)cc(Br)cc4cc3Cc3ccccc3)CC2)cc1 (centres unmarked) [Compound 54]
17 µg/mL: [2] | [4] | [6] | [10] | [7] | [8]

COc1cc(-c2ccccc2)c2cc(C(O)(CCN(C)C)c3cc(F)cc(F)c3)ccc2n1 (centres unmarked) [Compound 11]
9 µg/mL: [8]
not listed: [10] | [11]
11.3 µg/mL: all other assays above

CN(C)CCC(O)(c1cccc2ccccc12)c1cc(Br)cc2cc(-c3ccccc3)c(-n3cncn3)nc12 (centres unmarked) [Compound 33]
11.5 µg/mL: [1] | [10] | [8]
46 µg/mL: [11]
14.5 µg/mL: all other assays above

COc1cc(-c2ccccc2)c2cc(C(O)(CCN(C)C)c3ccco3)ccc2n1 (centres unmarked) [Compound 15]
not listed: [10] | [11]
10.1 µg/mL: all other assays above

COc1nc2cccc(C(O)(CCN(C)C)c3ccccc3)c2cc1-c1ccccc1 (centres unmarked) [Compound 4]
not listed: [10] | [11]
10.4 µg/mL: all other assays above

COc1nc2ccc(C(O)(CCN(C)C)c3cc(F)cc(F)c3)cc2cc1Cc1ccc(C)cc1 (centres unmarked) [Compound 7]
7.6 µg/mL: [3] | [5]
9.5 µg/mL: [6]
12 µg/mL: [7] | [8]
37.9 µg/mL: [1] | [9]
10.7 µg/mL: [2] | [4]

CN(C)CCC(O)(c1ccccc1)c1ccc2nc(-c3cccnc3)cc(-c3ccccc3)c2c1 (centres unmarked) [Compound 43]
11.5 µg/mL: [2] | [4] | [6] | [7] | [8]

CN(C)CCC(O)(c1cccc2ccccc12)c1cc(Br)cc2cc(Cc3ccccc3)c(-n3ccnc3)nc12 (centres unmarked) [Compound 24]
11.8 µg/mL: [1] | [11] | [6] | [10] | [8]
13.2 µg/mL: [5]
14.9 µg/mL: all other assays above

CN(C)CCC(O)(c1ccc2nc(-c3cccnc3)cc(-c3ccccc3)c2c1)c1ccco1 (centres unmarked) [Compound 44]
not listed: [10] | [11]
11.3 µg/mL: all other assays above

COc1nc2c(C(O)(CCN(C)C)c3cccs3)cc(-c3cccnc3)cc2cc1Cc1ccccc1 (centres unmarked) [Compound 67]
22.8 µg/mL: [7]
not listed: [10] | [11]
51 µg/mL: all other assays above

COc1nc2c(C(O)(CCN(C)C)c3cc(F)cc(F)c3)cc(-c3cccnc3)cc2cc1-c1ccccc1 (centres unmarked) [Compound 64]
11.8 µg/mL: [9]
8.3 µg/mL: [1] | [6]
10.5 µg/mL: [11] | [7]
6.6 µg/mL: [5]
2.1 µg/mL: [10] | [8]
13.2 µg/mL: all other assays above

COc1nc2ccccc2c(CC(O)(CCN(C)C)c2cccc3ccccc23)c1Cc1ccccc1 (centres unmarked) [Compound 70]
49.1 µg/mL: [2]
39 µg/mL: [3]
9.8 µg/mL: [4] | [10] | [8]
not listed: [11]
12.3 µg/mL: all other assays above

COc1nc2c(C(O)(CCN(C)C)c3ccco3)cc(Br)cc2cc1-c1ccccc1 (centres unmarked) [Compound 13]
10.8 µg/mL: [7]
not listed: [10] | [11]
12.1 µg/mL: all other assays above

COc1nc2cccc(C(O)(CCN(C)C)c3ccco3)c2cc1-c1ccccc1 (centres unmarked) [Compound 5]
9 µg/mL: [9]
not listed: [10] | [11]
10.1 µg/mL: all other assays above

COc1cc(-c2ccccc2)c2cc(C(O)(CCN(C)C)c3ccccc3)ccc2n1 (centres unmarked) [Compound 14]
not listed: [10] | [11]
10.4 µg/mL: all other assays above

COc1cc(-c2ccccc2)c2cc(C(O)(CCN(C)C)c3ccccn3)ccc2n1 (centres unmarked) [Compound 16]
not listed: [10] | [11]
10.4 µg/mL: all other assays above
